One assay concerns AGS. The experiment in a line: CellTiter-Glo Reagent cancer cell line proliferation assay, AGS. The class given is cell-based, human. Conditions: Homo sapiens, 24 h, KRAS(G12D) heterozygous. In outline: (§1)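 Cells were seeded at 4,000 per well, grown 24 hr at 37° C./5% CO2, then exposed 24 hr to 3-fold dilutions from 20 μM to 1.02 nM (0.5% DMSO final). Viability was read with CellTiter-Glo luminescence, and IC50 values were calculated.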

The subject of another assay is A427. The experiment in a line: CellTiter-Glo Reagent cancer cell line proliferation assay, A427. The class given is cell-based. Conditions: Homo sapiens, A-427; A427, KRAS(G12D) heterozygous, 24 hr. The source says:
(§2) The following cancer cell lines were employed: • AsPC-1 human pancreatic adenocarcinoma, homozygous KRAS(G12D), (ATCC, #CRL-1682); A-427 human lung carcinoma, heterozygous KRAS(G12D), (ATCC, #HTB-53); AGS human gastric adenocarcinoma, heterozygous KRAS(G12D), (ATCC, #CRL-1739); GP2D human colon adenocarcinoma, heterozygous KRAS(G12D), (Sigma Aldrich, 95090714); SW1990 human pancreatic adenocarcinoma, homozygous KRAS(G12D), (ATCC, #CRL2172); LU65A human lung giant cell carcinoma, heterozygous KRAS(G12C), (JCRB Cell Bank, #JCRB0054); NCIH727 human lung carcinoid, heterozygous KRAS(G12V), (ATCC, #CRL-5815); MKN1 human gastric adenosquamous carcinoma KRAS (wt), (JCRB Cell Bank, #JCRB0252). Cell lines were cultured according to ATCC, JCRB and Sigma Aldrich recommendations.
(§3) Cells were plated in 96-well tissue culture plates at 4,000 cells/well and incubated at 37° C./5% CO2 for 24 hr in 100 μl of media. 3-fold serial dilutions of each test compound were prepared ranging from 20 μM to 1.02 nM. Cells were then treated with test compounds at various concentrations with a final concentration of 0.5% DMSO/well, and then incubated at 37° C./5% CO2 for 24 hr. 100 μl of CellTiter-Glo® Reagent (Promega Corporation, Madison, WI) was added to each well and processed according manufacturer's protocol. Results were analyzed and IC50-values were calculated in GraphPad 7 software.
For orientation: ATP-based viability assays read luminescence as a measure of living cells.

The next assay has as its target T1, KRAS(G12D)/SOS1 (Homo sapiens, UniProt P01116, G12D).
T1 construct: purchased Cisbio 63ADK000CB16PEG
The experiment in a line: KRAS(G12D)/SOS1 Homogeneous Time-Resolved Fluorescence (HTRF) Assay. The class given is binding. Conditions: absence of GTP, 4° C., 3 hr. The procedure: 3-fold serial dilutions of each test compound were prepared ranging from 20 μM to 1.02 nM. The test compound was mixed and incubated with reaction components, incubated in a sealed plate at 4° C. for 3 hr and fluorescence was measured using a PerkinElmer Envision plate reader. The % inhibition and IC50 values (the concentration at which 50% of the maximal inhibition occurs) were calculated and plotted using GraphPad Prism 7 software.
In general terms: In TR-FRET formats the signal depends on donor and acceptor labels being close together.

The subject of another assay is ASPC-1. The experiment in a line: CellTiter-Glo Reagent cancer cell line proliferation assay, ASPC-1. The class given is cell-based. Conditions: Homo sapiens, ASPC1; ASPC-1, KRAS(G12D) homozygous, 24 hr.
Description: as §2, §3

The next assay relates to SW1990. In words: CellTiter-Glo Reagent cancer cell line proliferation assay, SW1990. The class given is cell-based. Conditions: Homo sapiens; SW1990, KRAS(G12D) homozygous, 24 hr.
Description: as §2, §3

A further assay deals with GP2D. In words: CellTiter-Glo Reagent cancer cell line proliferation assay, GP2D. The class given is cell-based. Conditions: Homo sapiens, KRAS(G12D) heterozygous, 24 hr. In outline: as §1
A further assay concerns the target KRAS(G12D) (Homo sapiens, UniProt P01116, G12D). In words: cell-based. The class given is cell-based. Also on record: Cell lines SW1990 and GP2D that express KRAS(G12D); host or cells: SW1990. Conditions: for Dmax: SW1990, read-out: WB data SW1990 DMax; for DC50: read-out: WB data SW1990 DC50, SW1990, KRAS degradation, 24 hr. The procedure: Cell lines were cultured according to ATCC, JCRB and Sigma Aldrich recommendations.
Cells were then washed with cold PBS, aspirated and cold RIPA buffer containing a protease/phosphatase inhibitor cocktail was added to lyse cells. After centrifugation, the total protein concentrations of cell lysates were determined using the BCA protein assay. Samples were normalized for equivalent protein concentrations, 5× SDS-PAGE loading buffer added and denatured at 100° C. for 10 min. 20 μl of each sample/well was loaded on a SDS-PAGE gel and electrophoresed for 20 min at 80 V, then 120 V for 1.5 hr. Gels were then electroblotted to nitrocellulose membranes using a wet-transfer method at 250 mA for 2.5 hr. Membranes were incubated with blocking buffer for 1 hr and washed 3 times with TBST for 5 min. Membranes were then incubated with anti-KRAS (Sigma-Aldrich, #SAB1404011) and anti-β-Actin monoclonal antibodies (Cell Signaling Technology, #3700) diluted in blocking buffer at 4° C. overnight per the manufacturer's recommendations. After washing 3 times, blots were incubated with appropriately labeled secondary antibodies for 1 hr at room temperature and washed again. Fluorescence imaging and quantitation was performed using a LI-COR Odyssey. Results was analyzed using GraphPad Prism 7 software. Compound concentrations that induced KRAS degradation (DC50 and DCmax) were calculated using GraphPad Prism 7 software.

T1 sequence (P01116 1-188 isoform P01116-2 G12D): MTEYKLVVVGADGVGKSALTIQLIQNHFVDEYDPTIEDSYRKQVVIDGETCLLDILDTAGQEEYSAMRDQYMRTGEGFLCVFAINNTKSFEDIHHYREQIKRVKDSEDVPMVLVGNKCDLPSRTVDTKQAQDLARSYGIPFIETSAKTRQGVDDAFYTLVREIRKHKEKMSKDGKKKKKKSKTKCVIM
Chain of KRAS(G12D) (P01116 1-188 isoform P01116-2 G12D): as above

On to `CN1C[C@H](N2CCC(C(=O)NCCOCCOc3ccc4c(c3)C(=O)N(C3CCC(=O)NC3=O)C4=O)CC2)C[C@@H]1COc1nc(N2CC3CCC(C2)N3)c2cnc(-c3cc(O)cc4ccccc34)c(F)c2n1` (stereo partly drawn) [Compound 24], for which the IC50 in the assay with AGS and with A427 was more than 1 µM throughout.

For the compound `COc1nc(-c2cc(O)cc3ccccc23)c(F)c2nc(OCC3(CN4CCN(CC5CCN(c6ccc7c(c6)C(=O)N(C6CCC(=O)NC6=O)C7=O)CC5)CC4)CC3)nc(C3CC4CCC(C3)N4)c12` (stereo not drawn) [Compound 36], the IC50 against KRAS(G12D)/SOS1 was less than 0.1 µM; with AGS, 0.1 to 1 µM; in the assay on A427, 0.1 to 1 µM; with ASPC-1 it was 0.1 to 1 µM; in the assay with SW1990, 0.1 to 1 µM.

As for `C#Cc1c(F)ccc2cc(O)cc(-c3nc(OC)c4c(N5CC6CCC(C5)N6C(=O)C(F)(F)F)nc(OCC5(CN6CCC(CN7CCN(c8ccc9c(c8)CN(C8CCC(=O)NC8=O)C9=O)CC7)CC6)CC5)nc4c3F)c12` (stereo not drawn) [Compound 63], the IC50 is less than 0.1 µM against KRAS(G12D)/SOS1; less than 0.1 µM in the assay with AGS; more than 1 µM in the assay with A427; 0.1 to 1 µM in the assay on ASPC-1; 0.1 to 1 µM in the assay with SW1990; less than 0.1 µM with GP2D. In addition, the Dmax on KRAS(G12D) was in the range of 10 to 50%. At KRAS(G12D), the 50% degradation concentration (DC50) was in the range of 0.1 to 1 µM.

With `O=C1CCC(N2C(=O)c3ccc(CN4CCN([C@H]5CN6CCCC6(COc6nc(N7CC8CCC(C7)N8)c7cnc(-c8cc(O)cc9ccccc89)c(F)c7n6)C5)CC4)cc3C2=O)C(=O)N1` (stereo partly drawn) [Compound 20], the IC50 with AGS, in the assay with A427 and in the assay on ASPC-1 was more than 1 µM throughout.

For `CN1C[C@H](N2CCC(C(=O)NCCOc3ccc4c(c3)C(=O)N(C3CCC(=O)NC3=O)C4=O)CC2)C[C@@H]1COc1nc(N2CC3CCC(C2)N3)c2cnc(-c3cc(O)cc4ccccc34)c(F)c2n1` (stereo partly drawn) [Compound 23], the IC50 against KRAS(G12D)/SOS1 is less than 0.1 µM; with AGS, more than 1 µM; in the assay with A427 it was more than 1 µM.

Regarding `C#Cc1cccc2cccc(-c3ncc4c(N5CC6CCC(C5)N6)nc(OC[C@H]5C[C@@H](N6CCN(CC7CCC(Nc8ccc9c(c8)C(=O)N(C8CCC(=O)NC8=O)C9=O)CC7)CC6)CN5C)nc4c3F)c12` (stereo partly drawn) [Compound 47], the IC50 in the assay with AGS, in the assay on A427, in the assay with ASPC-1 and in the assay on SW1990 was more than 1 µM throughout.

Take `C#Cc1c(F)ccc2cc(O)cc(-c3ncc4c(N5CC6CCC(C5)N6)nc(OCC5(CN6CCN(CC7CCN(c8ccc9c(c8)CN(C8CCC(=O)NC8=O)C9=O)CC7)CC6)CC5)nc4c3F)c12` (stereo not drawn) [Compound 43]: the IC50 against KRAS(G12D)/SOS1, in the assay on AGS, with A427, in the assay with ASPC-1, in the assay on SW1990 and in the assay with GP2D was less than 0.1 µM throughout. Moreover, the Dmax at KRAS(G12D) was more than 50%. At KRAS(G12D), the DC50 is less than 0.1 µM.

Consider `C#Cc1cccc2cc(O)cc(-c3ncc4c(N5CC6CCC(C5)N6C(=O)C(F)(F)F)nc(OCC5(CN6CCN(CC7CCN(c8ccc9c(c8)CN(C8CCC(=O)NC8=O)C9=O)CC7)CC6)CC5)nc4c3F)c12` (stereo not drawn) [Compound 57], for which the IC50 in the assay with AGS was less than 0.1 µM; with A427, 0.1 to 1 µM; in the assay on ASPC-1, 0.1 to 1 µM; in the assay with SW1990, 0.1 to 1 µM. Besides, the Dmax at KRAS(G12D) lay within 10 to 50%. For the same compound, the DC50 at KRAS(G12D) was more than 1 µM.

Take `C#Cc1cccc2cc(O)cc(-c3ncc4c(N5CC6CCC(C5)N6)nc(OCC5(CN6CCN(CC7CCN(c8ccc9c(c8)n(C)c(=O)n9C8CCC(=O)NC8=O)CC7)CC6)CC5)nc4c3F)c12` (stereo not drawn) [Compound 64]: the IC50 against KRAS(G12D)/SOS1 was less than 0.1 µM; in the assay on AGS, less than 0.1 µM; in the assay with A427 it was 0.1 to 1 µM; in the assay with ASPC-1, less than 0.1 µM; with SW1990, less than 0.1 µM; with GP2D it was less than 0.1 µM. The Dmax at KRAS(G12D) was more than 50%. At KRAS(G12D), the DC50 is less than 0.1 µM.

Take `C#Cc1cccc2cccc(-c3ncc4c(N5CC6CCC(C5)N6)nc(OC[C@H]5CC[C@@H](CN6CCN(CC7CCN(c8cc9c(cc8F)C(=O)C(N8CCC(=O)NC8=O)C9=O)CC7)CC6)N5C)nc4c3F)c12` (stereo partly drawn) [Compound 25]: the IC50 against KRAS(G12D)/SOS1 was less than 0.1 µM; in the assay with AGS it was more than 1 µM; with A427, more than 1 µM.

Regarding `C#Cc1cccc2cc(O)cc(-c3ncc4c(N5CC6CCC(C5)N6)nc(OCC5(CN6CCN(CC7CCN(c8ccc9c(c8)C(=O)N(C8CCC(=O)N(C)C8=O)C9=O)CC7)CC6)CC5)nc4c3F)c12` (stereo not drawn) [Compound 42], the IC50 at KRAS(G12D)/SOS1 was less than 0.1 µM; in the assay on AGS, less than 0.1 µM; in the assay on A427 it was 0.1 to 1 µM; in the assay on SW1990 it was 0.1 to 1 µM. Moreover, on KRAS(G12D), the Dmax was in the range of 10 to 50%. Moreover, the 50% degradation concentration (DC50) at KRAS(G12D) was more than 1 µM.

With `C#Cc1cccc2cc(O)cc(-c3ncc4c(N5CC6CCC(C5)N6)nc(OCC5(CN6CCN(C(=O)C7CCN(c8ccc9c(c8)CN(C8CCC(=O)NC8=O)C9=O)CC7)CC6)CC5)nc4c3F)c12` (stereo not drawn) [Compound 58], the half-inhibitory concentration (IC50) in the assay with AGS is less than 0.1 µM; in the assay with A427, more than 1 µM; with ASPC-1, 0.1 to 1 µM; in the assay with SW1990, 0.1 to 1 µM.

In general, IC50 refers to the point on the concentration scale where inhibition reaches its midpoint. Read a low IC50 as greater potency. A word on the DC50: it is the concentration at which degradation of the target reaches its halfway point.

The record behind these values is patent US20260325654A1, “METHODS AND COMPOSITIONS FOR TARGETED PROTEIN DEGRADATION” (Ranok Therapeutics (Hangzhou) Co. Ltd., priority 2023, published 2026).
